For one assay, the system named is primary brown adipocytes. Description: Microplate respirometry (oxygen consumption rate) in differentiated primary brown adipocytes of wildtype mice. In kind it is cell-based, Mus musculus. Conditions: for stimulation of UCP1-mediated thermogenesis (uncoupled respiration): SCT 10 nM, ISO 500 nM, N=5 (FIG. 10A). The method, then:
For culturing primary adipocytes male 129S1/SvImJ mice ([…] or UCP1-KO mice and wildtype littermates) at the age of 5-6 weeks were used for the dissection of inguinal and epidydimal white adipose tissue and interscapular brown adipose tissue depots. The tissue was carefully minced and treated with collagenase for 45 min at 37° C. The homogenate was filtered through a 250 μm nylon mesh and centrifuged at 500 g to collect the stromal vascular fraction (SVF). The SVF cell pellet was rinsed and seeded into XF96 V3-PS cell culture microplate (Seahorse Bioscience). After reaching confluency, induction medium containing 10% fetal bovine serum (FBS), 0.5 mM isobutylmethylxanthine, 125 nM indomethacin, 1 mM dexamethasone, 850 nM insulin and 1 nM T3 was added. After 2 days of induction, cells were maintained in differentiation media (10% FBS, 850 nM insulin and 1 nM T3). Medium was changed every two days. Respiration was measured on day 7 of differentiation. For determination of mRNA levels cells were stimulated at the 7th day of differentiation for 6 hours with secretin (rat, Tocris, Art Nr 1919) or isoproterenol (Sigma-Aldrich, Art Nr. 16504-100MG) and harvested subsequently. Oxygen consumption rate (OCR) was measured at 37° C. using a microplate respirometer (XF96 extracellular flux analyzer, Seahorse Bioscience). At day 7, the differentiation medium was replaced with prewarmed, unbuffered assay medium (DMEM basal medium supplemented with 25 mM glucose, 2 mM sodium pyruvate, 31 mM NaCl, 2 mM GlutaMax and 15 mg/l phenol red, pH 7.4) containing 2% of essentially fatty acid free bovine serum albumin (BSA), and incubated at 37° C. in a room air incubator for 1 h. Basal respiration was measured in untreated cells. Coupled respiration was inhibited by oligomycin treatment (5 μM). […] Maximum respiratory capacity was assessed after FCCP (Sigma-Aldrich) addition (1 μM). Finally, mitochondrial respiration was blocked by antimycin A (Sigma-Aldrich) (5 μM) treatment and the residual OCR was considered to be due to non-mitochondrial reactions. Oxygen consumption rates were calculated using the Seahorse XF-96 software. Data were exported and reconstructed in GraphPad Prism 4.0 software. For each condition the lowest OCR after antimycin A addition was subtracted from all other values. Respiration rates following oligomycin addition were defined as basal OCR. For induction of OCR by isoproterenol, secretin or FCCP the highest values measured after addition of the respective molecule was used. The “OCR in % of basal OCR” and “OCR in % of FCCP OCR” were calculated as follows: Method: To test whether SCT can activate thermogenesis in brown adipocytes, we measured UCP1-mediated uncoupled respiration in cultured adherent intact primary brown adipocytes, according to a protocol recently established in our lab (Li Y, Fromme T, Schweizer S, Schöttl T, Klingenspor M. EMBO Rep. 2014 October; 15(10):1069-76. doi: 10.15252/embr.201438775; […]. Meaningful respirometric measurements of UCP1-mediated thermogenesis. Biochimie. 2017 March; 134:56-61. doi: 10.1016/j.biochi.2016.12.005.). The cellular oxygen consumption rate (OCR) of primary adipocytes was determined using an XF96 Extracellular Flux Analyzer (Seahorse Bioscience). Briefly, primary adipocytes were cultured and differentiated in XF96 microplates. At day 7 of differentiation, cells were washed once with prewarmed, unbuffered assay medium (DMEM basal medium supplemented with 25 mM glucose, 31 mM NaCl, 2 mM GlutaMax and 15 mg/l phenol red, pH 7.4) (basal assay medium) and then the medium was replaced with basal assay medium containing 1-2% essentially fatty acid free bovine serum albumin (BSA), and incubated at 37° C. in a room air incubator for 1 h. The drug injections ports of the sensor cartridges were loaded with the assay reagents at 10× in basal assay medium (no BSA). All respiration assays were performed in the presence of bovine serum albumin to buffer free fatty acid levels in the respiration medium. […]

The next assay has as its system UCP1 expression. Briefly: UCP1 mRNA expression (qRT-PCR) in primary adipocytes from inguinal white adipose tissue. The format is cell-based, Mus musculus. As to conditions: 0.1 μM secretin or 0.5 μM isoproterenol, 6 hours, normalized to TFIIB (FIG. 4A). The procedure:
For culturing primary adipocytes male 129S1/SvImJ mice ([…] or UCP1-KO mice and wildtype littermates) at the age of 5-6 weeks were used for the dissection of inguinal and epidydimal white adipose tissue and interscapular brown adipose tissue depots. The tissue was carefully minced and treated with collagenase for 45 min at 37° C. The homogenate was filtered through a 250 μm nylon mesh and centrifuged at 500 g to collect the stromal vascular fraction (SVF). The SVF cell pellet was rinsed and seeded into XF96 V3-PS cell culture microplate (Seahorse Bioscience). After reaching confluency, induction medium containing 10% fetal bovine serum (FBS), 0.5 mM isobutylmethylxanthine, 125 nM indomethacin, 1 mM dexamethasone, 850 nM insulin and 1 nM T3 was added. […] Respiration was measured on day 7 of differentiation. […] RNA was eluted in 50 μl nuclease-free water and RNA concentration was determined spectrophotometrically (Infinite 200 PRO NanoQuant, Tecan, Männedorf/Switzerland). Reverse transcription into cDNA was performed with 500 ng RNA in a final volume of 10 μl (Quantitect Reverse Transcription Kit, Quiagen, Hilden/Germany). qRT-PCR was conducted on 384 well plates in a total volume of 12.5 μl comprising 6.25 μl SensiMix SYBR No-ROX (Bioline, London/UK), 250 nM forward and reverse primers, and 1 μl template cDNA (LightCycler 480 System, Roche Diagnostics, Rotkreuz/Switzerland). […]
For orientation: Quantitative PCR measures a nucleic acid by following its amplification.

Here are results for 1 substance from patent US20200179488A1, “Secretin Receptor Agonists to Treat Diseases or Disorders of Energy Homeostasis” (Technische Universität München, priority 2016, published 2020).

Consider secretin, for which the “increase of OCR above basal OCR” value in the assay with primary brown adipocytes (0.5 μM, after oligomycin, day 7 of differentiation (FIG. 2B)) is “about 200%”. Further, the “uncoupled OCR as share of maximal uncoupled OCR induced by FCCP” value in the assay with primary brown adipocytes (0.5 μM, day 7 of differentiation (FIG. 2C)) was “about 75%”. Also, the “induction of oxygen consumption in cells from wildtype control mice” value in the assay on primary brown adipocytes (129/S1 background, FIG. 3) is “increase in oxygen consumption”. Besides, the “stimulation of UCP1-mediated thermogenesis (uncoupled respiration)” value with primary brown adipocytes was “activate UCP1-dependent thermogenesis”; in the assay with primary brown adipocytes (listed as SCT), “as potent as ISO (500 nM)”. Also, in the assay with primary brown adipocytes (compared to isoproterenol, data not shown), the “dose dependence and potency of activation of uncoupled respiration” value is recorded as “dose-dependent with a higher potency at lower concentrations as compared to isoproterenol”. The “UCP1 mRNA expression in white adipocytes versus PBS” value with UCP1 expression is recorded as “increased the expression of UCP1”.
